In ChEMBL document CHEMBL1201862, “PubChem BioAssay data set” (2004):
The source made the active and inactive calls.

Legend:
Cytochrome P450 2C9 = Cytochrome P450 2C9 (Homo sapiens, UniProt P11712)
Cytochrome P450 3A4 = Cytochrome P450 3A4 (Homo sapiens, UniProt P08684);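 note: CYP3A4 tested as one member of a cytochrome P450 panel screen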
Troponin, cardiac muscle = Troponin, cardiac muscle (Homo sapiens, UniProt P19429+P45379+P63316); test: Fluorescence-based biochemical high throughput dose response assay for activators of the calcium sensitivity of cardiac Regulated Thin Filaments (RTF). [Related pubchem assays (depositor defined):AID493008, AID493018, AID504382, AID504383]; type: protein-complex assay
[1] = target: T1, Endoribonuclease toxin MazF (Escherichia coli K-12, UniProt P0AE70); test: activation of MazEF endoribonuclease cleavage – biochemical, fluorescence, single-stranded RNA substrate, uHTS hits, dose response (AID 588481); type: functional
T1 sequence (P0AE70 whole entry): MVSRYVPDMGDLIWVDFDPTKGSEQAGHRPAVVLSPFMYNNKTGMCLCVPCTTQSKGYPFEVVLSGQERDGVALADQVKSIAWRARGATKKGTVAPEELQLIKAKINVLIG

[2] = target: T1, Endoribonuclease toxin MazF; test: substrate-only fluorescence increase artefacts – biochemical, single-stranded RNase substrate, counter-screen for MazEF activator project, dose response (AID 588502); type: functional
[3] = Luminescence Cell-Based Dose Response HTS to Identify Activators of Luciferase Translation or Activity in H4 […] Cells. [Related pubchem assays: 1829 (Project Summary), 1814 (Primary HTS)]; type: functional
H4 = test: Luminescence Cell-Based Dose Response HTS to Identify Activators of 5'UTR Stem-Loop Driven Prion Protein mRNA Translation in H4 Neuroglioblastoma Cells. [Related pubchem assays: 1829 (Project Summary), 1814 (Primary HTS)]; type: functional; settings: Homo sapiens
HeLa = test: ATP-based viability loss in HeLa cells – cell-based, CellTiter-Glo luminescence, cherry-pick samples, cytotoxicity control for MITF activator project, dose response (AID 540259); type: functional; settings: Homo sapiens
[4] = target: Glyceraldehyde-3-phosphate dehydrogenase (Homo sapiens, UniProt P04406)
[5] = target: T2, Alkaline phosphatase, tissue-nonspecific isozyme (Homo sapiens, UniProt P05186); test: potency against alkaline phosphatase TNAP – biochemical, luminescent, dose response, SAR follow-up (AID 1056)
T2 sequence (P05186 whole entry): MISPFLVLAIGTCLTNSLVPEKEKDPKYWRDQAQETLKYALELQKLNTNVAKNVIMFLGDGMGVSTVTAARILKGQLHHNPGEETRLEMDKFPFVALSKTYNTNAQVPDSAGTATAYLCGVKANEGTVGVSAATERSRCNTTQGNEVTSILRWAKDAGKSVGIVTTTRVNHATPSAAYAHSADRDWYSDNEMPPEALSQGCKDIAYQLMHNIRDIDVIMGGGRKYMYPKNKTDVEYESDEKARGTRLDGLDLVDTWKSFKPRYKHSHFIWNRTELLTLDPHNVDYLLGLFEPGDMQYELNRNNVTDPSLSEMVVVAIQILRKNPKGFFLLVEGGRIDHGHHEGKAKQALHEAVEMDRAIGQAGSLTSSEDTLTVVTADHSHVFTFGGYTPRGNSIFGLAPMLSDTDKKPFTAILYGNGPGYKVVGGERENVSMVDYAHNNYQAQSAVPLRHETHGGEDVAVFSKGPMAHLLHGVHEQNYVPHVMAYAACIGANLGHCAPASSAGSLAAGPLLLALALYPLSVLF

Vero = test: cells; type: functional; settings: Chlorocebus sabaeus
[6] = A549 cell cytotoxicity, dose response, cytotoxicity control, plate reader, cherry-pick, antagonist series (AID 743412); type: functional, cell-based
[7] = toxicity toward HepG2 liver cells – cell-based, plate reader, cherry-pick, antagonist series, cytotoxicity control, dose response (AID 743416); type: functional
[8] = blockers of bursicon-stimulated LGR2 cAMP reporter – cell-based, HEK293, CRE-luciferase reporter, cherry pick, set 2, dose response (AID 743343); type: functional;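 note: transfected cells were stimulated with diluted bursicon conditioned medium after compound addition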
[9] = blockade of melanocortin 4 receptor signaling – cell-based, plate reader, cherry pick, counter-screen for LGR2 antagonist project, dose response (AID 743444); type: functional;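 note: transfected HEK 293 cells stimulated with alpha-MSH peptide; potency of inhibitors of the alpha-MSH evoked signal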
[10] = viability loss in HEK293 cells – cell-based, plate reader, cherry-picked samples, cytotoxicity control, dose response (AID 743446); type: functional
HEK293 = test: EBV LMP1 TES2 canonical NF-kB signalling blockers – cell-based, HEK293, luciferase, cherry-pick, dose response (AID 588343); type: functional; settings: Homo sapiens

Cytochrome P450 3A4, sequence (P08684 whole entry): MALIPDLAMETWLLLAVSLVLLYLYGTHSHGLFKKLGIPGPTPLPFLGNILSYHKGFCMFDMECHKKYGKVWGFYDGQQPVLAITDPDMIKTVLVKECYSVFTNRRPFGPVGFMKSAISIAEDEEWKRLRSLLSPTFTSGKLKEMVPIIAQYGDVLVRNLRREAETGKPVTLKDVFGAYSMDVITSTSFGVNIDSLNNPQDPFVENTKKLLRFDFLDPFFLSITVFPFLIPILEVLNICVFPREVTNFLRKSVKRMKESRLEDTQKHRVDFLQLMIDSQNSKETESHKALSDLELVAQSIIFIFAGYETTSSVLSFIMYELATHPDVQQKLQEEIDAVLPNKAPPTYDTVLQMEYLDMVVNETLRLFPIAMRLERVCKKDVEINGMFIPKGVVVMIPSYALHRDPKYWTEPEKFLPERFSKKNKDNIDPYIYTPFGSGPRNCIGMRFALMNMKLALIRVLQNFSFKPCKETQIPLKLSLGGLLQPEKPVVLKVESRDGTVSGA
Cytochrome P450 2C9, sequence (P11712 whole entry): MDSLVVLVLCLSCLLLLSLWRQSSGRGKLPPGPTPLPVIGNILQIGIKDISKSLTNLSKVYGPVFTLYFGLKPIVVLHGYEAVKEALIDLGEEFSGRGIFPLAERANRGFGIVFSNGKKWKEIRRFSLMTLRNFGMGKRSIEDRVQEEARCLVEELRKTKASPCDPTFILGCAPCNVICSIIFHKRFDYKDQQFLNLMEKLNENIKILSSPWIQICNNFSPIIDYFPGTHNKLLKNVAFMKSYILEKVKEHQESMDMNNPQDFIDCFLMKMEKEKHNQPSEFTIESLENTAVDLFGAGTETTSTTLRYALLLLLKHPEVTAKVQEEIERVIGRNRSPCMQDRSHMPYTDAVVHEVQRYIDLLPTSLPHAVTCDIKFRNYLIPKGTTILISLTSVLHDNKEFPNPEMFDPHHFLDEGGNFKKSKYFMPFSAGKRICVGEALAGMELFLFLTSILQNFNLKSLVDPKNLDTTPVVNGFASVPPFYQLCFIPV
Glyceraldehyde-3-phosphate dehydrogenase, sequence (P04406 whole entry): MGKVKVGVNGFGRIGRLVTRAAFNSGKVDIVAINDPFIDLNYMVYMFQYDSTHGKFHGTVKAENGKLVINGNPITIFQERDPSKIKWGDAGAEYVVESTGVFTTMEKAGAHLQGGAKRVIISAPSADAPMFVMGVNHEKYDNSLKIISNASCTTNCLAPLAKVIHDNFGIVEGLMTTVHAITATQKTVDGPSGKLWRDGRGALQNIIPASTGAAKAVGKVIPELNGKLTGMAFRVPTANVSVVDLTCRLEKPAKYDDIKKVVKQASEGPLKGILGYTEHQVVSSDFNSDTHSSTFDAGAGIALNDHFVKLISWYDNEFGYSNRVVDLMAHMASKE

For Cn1c(=N)c(S(=O)(=O)c2ccc(F)cc2)cc2c(=O)n3ccccc3nc21, the AC50 (Cytochrome P450 2C9) was 17.8 µM (inconclusive) and the AC50 (Cytochrome P450 3A4) was “inconclusive”.
For Cc1ccccc1-n1nnnc1SCC(C)C, the EC50 (Troponin, cardiac muscle) was > 71.5 µM (inactive).
In the case of COc1cc(OC)c(OC)cc1/C=C(\C#N)C(=O)NCc1cccs1, the EC50 [1] is reported as > 99 µM (inactive) and the EC50 [2] is reported as > 99 µM (inactive).
In the case of Cn1c(C(=O)NCCc2c[nH]c3ccccc23)cc2sccc21, the EC50 [3] is reported as 21.7 µM (active), the EC50 (H4) is reported as 14.7 µM (active) and the AC50 (HeLa) is reported as 239 µM (active).
With COc1ccc(S(=O)(=O)Nc2cnc3ccccc3c2)cc1OC the IC50 [4] was > 100 µM (not active) and the IC50 [5] was > 100 µM (inactive).
For O=C(Cc1nc2ccccc2[nH]1)c1cccc([N+](=O)[O-])c1, the CC50 (Vero) was 6.19 µM (active), the AC50 [6] was 20.7 µM (active) and the AC50 [7] was 11.2 µM (active). The AC50 [8] was 4.47 µM (active), the AC50 [9] was 5.45 µM (active) and the AC50 [10] was 12.1 µM (active).
For COc1ccc(-c2cc(C(=O)N3CCCC3)no2)cc1, the AC50 (HEK293) was 3.97 µM (active), the AC50 [8] was 5.07 µM (active) and the AC50 [9] was 5.22 µM (active).
For Cn1c2ccccc2c(=O)c2ccc(-c3ccc4c(c3)OCO4)cc21, the AC50 (HeLa) was 46.6 µM (active).
With O=C(CCNc1ccccc1)c1ccc2c(c1)OCO2 the AC50 (HeLa) was 111 µM (active).
For COC(=O)N1CCC2(CC1)CCN(c1ncccn1)CC2, the AC50 (Cytochrome P450 3A4) was “inconclusive”.
